Among the test systems are A549 NSCLC; HL-60(TB) leukemia; HT29 colon; NCI-H23 lung; OVCAR-8 ovarian; SR leukemia; MDA-MB-231 breast; MDA-MB-435; PC-3 prostate.
What all share (test): inhibition of tumour cell growth, NCI panel, 48 h

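Cells were grown in 96-well plates and exposed to each compound for 48 hours at five concentrations; endpoints were interpolated linearly between bracketing concentrations, or set to the highest concentration if not reached. Abbreviation: GI50, concentration required for 50% inhibition of growth. TGI is the concentration that stops growth completely.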

Regarding `C=C/C=C(\NC(=O)C(Cl)(Cl)Cl)[Si](C)(C)C`, the TGI with A549 NSCLC, in the test on HL-60(TB) leukemia, in the test with HT29 colon, in the test on NCI-H23 lung, in the test with OVCAR-8 ovarian and in the test with SR leukemia was more than 100 µM throughout.

Turning to `COc1ccc2oc3c4c2c1CCC4CCC3=O` (stereo unspecified), the TGI in the test on A549 NSCLC, with HL-60(TB) leukemia, with HT29 colon, in the test with NCI-H23 lung, with OVCAR-8 ovarian and with SR leukemia was more than 100 µM in each case.

With `CCNCC(=O)O[C@]1(CC)C(=O)OCc2c1cc1n(c2=O)Cc2cc3ccccc3nc2-1`, the TGI in the test on A549 NSCLC is 13.5 µM; with HL-60(TB) leukemia, 0.849 µM; with HT29 colon it was more than 32.9 µM; in the test on MDA-MB-231 breast it was 98 µM; with MDA-MB-435, 7.82 µM; in the test on NCI-H23 lung it was 0.879 µM. Moreover, the TGI is 5.68 µM in the test on OVCAR-8 ovarian, more than 100 µM with PC-3 prostate and 0.0327 µM with SR leukemia.

On to `Cc1ccc(-c2nc(SCC(=O)O)n[nH]2)cc1`, for which the TGI with A549 NSCLC, with HL-60(TB) leukemia, in the test on HT29 colon, in the test with NCI-H23 lung, in the test with OVCAR-8 ovarian and with SR leukemia was more than 100 µM throughout.

As to `CCC[CH2][Sn]([CH2]CCC)([O]C(=O)c1cc(F)cc(F)c1)[O]C(=O)c1cc(F)cc(F)c1`, the GI50 with A549 NSCLC is 7.13 µM; with HL-60(TB) leukemia, 0.409 µM; in the test with HT29 colon it was 1.65 µM; in the test with NCI-H23 lung, 0.7 µM; in the test on OVCAR-8 ovarian, 1.39 µM; in the test with SR leukemia it was 0.459 µM. The TGI with A549 NSCLC was 20.4 µM; with HL-60(TB) leukemia, 2.17 µM; in the test with HT29 colon, 3.06 µM; with NCI-H23 lung, 2 µM; in the test with OVCAR-8 ovarian, 2.68 µM; in the test on SR leukemia it was 3.29 µM.

For `N#CC(C(=O)/C(=N\Nc1nc(=S)[nH]n1N)C(C#N)c1ccc(Cl)cc1)c1ccc(Cl)cc1` (stereo unspecified), the TGI in the test on A549 NSCLC, with HT29 colon, in the test on NCI-H23 lung and with OVCAR-8 ovarian was more than 100 µM each time.

For the compound `COC1=CC(O)(CC(N)=O)c2ccccc2C1=O` (stereo unspecified), the TGI in the test on A549 NSCLC, in the test with HL-60(TB) leukemia, with HT29 colon, in the test on OVCAR-8 ovarian and in the test on SR leukemia was more than 100 µM throughout.

For `Cn1c2c(c3ccccc31)C1CCCCC1C1C(=O)NC(=O)C21` (stereo unspecified), the TGI with A549 NSCLC is more than 100 µM; in the test with HL-60(TB) leukemia it was 63.5 µM; in the test with HT29 colon, more than 100 µM; in the test with NCI-H23 lung it was more than 100 µM; in the test on OVCAR-8 ovarian, more than 100 µM; with SR leukemia it was more than 100 µM.

As to `NC(=NCCCOc1ccc(Cl)cc1)Nc1ccc(Cl)cc1`, the GI50 in the test on A549 NSCLC was 3.48 µM; with HL-60(TB) leukemia, 1.88 µM; in the test on HT29 colon it was 2.12 µM; in the test on MDA-MB-231 breast it was 1.97 µM; in the test with MDA-MB-435, 1.76 µM; in the test with NCI-H23 lung, 2.31 µM. In addition, the GI50 in the test on OVCAR-8 ovarian is 3.16 µM; with PC-3 prostate it was 2.1 µM; in the test with SR leukemia it was 2.17 µM. For the same compound, the TGI came out at 12.7 µM in the test with A549 NSCLC; 4.58 µM with HL-60(TB) leukemia; 5.95 µM in the test with HT29 colon; 4.56 µM with MDA-MB-231 breast; 3.37 µM in the test with MDA-MB-435; 7.43 µM in the test on NCI-H23 lung. For the same compound, the figures for the TGI in the test on OVCAR-8 ovarian, in the test with PC-3 prostate and with SR leukemia were 12.1 µM, 6.29 µM and 5.9 µM, respectively.

As for `O=C(OCc1ccccc1)N1CCN(/[N+]([O-])=N/Oc2ccc([N+](=O)[O-])cc2[N+](=O)[O-])CC1`, the GI50 in the test with A549 NSCLC was 21.5 µM; with HL-60(TB) leukemia it was 18.8 µM; with HT29 colon, 10.4 µM; in the test with MDA-MB-231 breast, 3.58 µM; with MDA-MB-435, 4.93 µM; in the test on NCI-H23 lung, 6.45 µM. In addition, the GI50 in the test on OVCAR-8 ovarian was 31.5 µM; in the test with PC-3 prostate, 14.2 µM; in the test on SR leukemia, 4.7 µM. Further, the TGI in the test with A549 NSCLC was 56 µM; in the test on HL-60(TB) leukemia, 57.3 µM; in the test with HT29 colon, more than 100 µM; in the test with MDA-MB-231 breast it was 9.48 µM; in the test on MDA-MB-435 it was 19.5 µM; in the test with NCI-H23 lung it was 44.8 µM. Moreover, the results for the TGI in the test on OVCAR-8 ovarian, in the test on PC-3 prostate and with SR leukemia were more than 100 µM, 28.5 µM and more than 100 µM, respectively.

Regarding `CN(C)c1ccc(N=Cc2c([O-])ccc3ccccc23)cc1.[C-]#[O+].[C-]#[O+].[Ir]`, the GI50 was 31.8 µM with A549 NSCLC; 19.2 µM in the test on HT29 colon; 15.3 µM in the test on NCI-H23 lung; 28.8 µM with OVCAR-8 ovarian; 15.4 µM in the test with SR leukemia. The TGI in the test on A549 NSCLC was 89.3 µM; in the test with HT29 colon it was 40.7 µM; in the test with NCI-H23 lung, 36.8 µM; in the test on OVCAR-8 ovarian, more than 100 µM; in the test on SR leukemia, 44.1 µM.

As to `O=S(O)CCCCCSSCCCCSSCCCCCS(=O)O`, the TGI in the test with A549 NSCLC, in the test on HT29 colon, in the test with NCI-H23 lung and in the test with OVCAR-8 ovarian was more than 100 µM in each case.

Regarding `COc1cc2c(cc1OC)-c1cc3cc(OC)c(OC)cc3n1CC2`, the TGI was more than 100 µM in the test with A549 NSCLC; more than 100 µM with HL-60(TB) leukemia; 56.3 µM with HT29 colon; more than 100 µM with NCI-H23 lung; 73.1 µM with OVCAR-8 ovarian; more than 100 µM in the test on SR leukemia.

Take `C[C@]12CCC[C@H](Cl)C1(O)C[C@H](C(=O)O)CC2` (stereo partly specified): the TGI with A549 NSCLC, with HL-60(TB) leukemia, in the test on HT29 colon, in the test with NCI-H23 lung, in the test with OVCAR-8 ovarian and with SR leukemia was more than 100 µM in each case.

With `COc1ccc(/C=C2\CCCCC2=O)cc1`, the TGI with A549 NSCLC, in the test with HL-60(TB) leukemia, in the test with HT29 colon, in the test on NCI-H23 lung and in the test on OVCAR-8 ovarian was more than 100 µM throughout.
